Results published in the NIST ThermoML archive (doi:10.1021/je501051p).

Assay: mn = molality of the nth substance listed, in mol/kg
Settings: 303 K, Ring tensiometer

CCCCCCCCCCc1ccc(C(=O)[O-])cn1.[Na+] [sodium 6-decylnicotinate] + O
Settings | surface tension liquid-gas [mN/m]
m1 = 1e-05 | 65
m1 = 1.479e-05 | 63.7
m1 = 2.512e-05 | 62.02
m1 = 4.074e-05 | 59.6
m1 = 5.495e-05 | 58.45
m1 = 7.586e-05 | 56.75
m1 = 0.0001 | 55.75
m1 = 0.000123 | 54.56
m1 = 0.0001514 | 53.1
m1 = 0.000182 | 51.77
m1 = 0.0002042 | 50.5
m1 = 0.0002512 | 49.5
m1 = 0.000302 | 48.5
m1 = 0.0003548 | 47
m1 = 0.0004074 | 47
m1 = 0.0005012 | 47
m1 = 0.0006166 | 47
m1 = 0.0008128 | 46.5
m1 = 0.001 | 46
m1 = 0.001514 | 45.6
m1 = 0.002042 | 45
m1 = 0.002291 | 44.5
m1 = 0.002512 | 44
m1 = 0.002754 | 43.5
m1 = 0.00302 | 42.5
m1 = 0.003311 | 42.5
m1 = 0.003548 | 42.5
m1 = 0.004074 | 42.5
m1 = 0.005012 | 42.5
m1 = 0.006026 | 42.5

CCCCCCCCc1ccc(C(=O)[O-])cn1.[Na+] [sodium 6-octylnicotinate] + O
Settings | surface tension liquid-gas [mN/m]
m1 = 5e-05 | 69
m1 = 7.145e-05 | 68.3
m1 = 0.0001 | 67
m1 = 0.0001545 | 66
m1 = 0.0002512 | 64.9
m1 = 0.0003972 | 63.6
m1 = 0.0006397 | 61.8
m1 = 0.001 | 60
m1 = 0.0015 | 58.4
m1 = 0.002 | 57.4
m1 = 0.0025 | 57.4
m1 = 0.002999 | 57.4
m1 = 0.003999 | 57.4
m1 = 0.005 | 56
m1 = 0.006427 | 54.22
m1 = 0.009016 | 52.4
m1 = 0.01 | 49.5
m1 = 0.013 | 48
m1 = 0.015 | 47.5
m1 = 0.01702 | 45
m1 = 0.02 | 44
m1 = 0.025 | 44
m1 = 0.02999 | 44
m1 = 0.03499 | 44

CCCCCCCCCCc1ccc(C(=O)NCC(=O)[O-])cn1.[Na+] [sodium (6-decylnicotinoyl)glycinate] + O
Settings | surface tension liquid-gas [mN/m]
m1 = 1.995e-05 | 64.7
m1 = 2.818e-05 | 61.8
m1 = 4.786e-05 | 59.4
m1 = 5.888e-05 | 58.1
m1 = 8.128e-05 | 56.6
m1 = 0.0001148 | 55.2
m1 = 0.0001514 | 53.2
m1 = 0.0002512 | 52.5
m1 = 0.000302 | 50
m1 = 0.0005012 | 47
m1 = 0.0008128 | 46
m1 = 0.001 | 45
m1 = 0.001514 | 44
m1 = 0.002042 | 43
m1 = 0.002291 | 42
m1 = 0.002512 | 40.5
m1 = 0.00302 | 40.5
m1 = 0.003548 | 40.5
m1 = 0.004074 | 40.5
m1 = 0.005012 | 40.5
m1 = 0.006026 | 40.5
